Assay results taken from patent US12274732B2, “Anti-pathogen composition and methods of use thereof” (Tenfold Technologies, LLC, priority 2017, dated 2025).
In brackets after ≈: the same amount, converted by molar mass. Like-named read-outs stand apart in the source and are kept apart here. Positions of bridges follow the written chain, without caps; N, C: chain ends. Non-standard residues stand in square brackets, D forms with d. Residues, ends and D or L forms follow the SMILES beside them. ξ: configuration not given here. *: point of attachment. Pentadecanoyl(3ξ-OH,15-Gua) = N=C(N)NCCCCCCCCCCCCC(O)CC(=O)*; d(aThr) = C[C@@H](O)[C@@H](N)C(=O)O; Thr(3ξ) = CC(O)[C@H](N)C(=O)O

How the values were obtained:
Type in all cases: cell-based
Cryptococcus neoformans = assay: In vitro antimicrobial activity against Cryptococcus neoformans; details: for C. neoformans IC50 (50% growth inhibitory concentration) / C. neoformans MIC (minimum inhibitory concentration): Table 12; for C. neoformans IC50 (50% growth inhibitory concentration): highest test conc. fusaricidins 20, controls 100 μg/mL; for C. neoformans MIC (minimum inhibitory concentration): lowest concentration that allows no detectable growth; for IC50: Cryptococcus neoformans, test conc. 200-8 μg/mL (extracts), 100-4 or 10-0.4 μg/mL (drugs), read-out: C. neoformans IC50; for C. neoformans IC50: Table 5, extracts tested at 8-200 μg/mL
Experimental: (§1) Fifty organic extracts were prepared from 25 whole broth of four microbial strains (MS1479, MS2379, MS2820, and MS2414), which were fermented in different media for the antimicrobial testing. Note each whole broth culture generated one n-butanol extract from cultural supernatant and one methanol extract from cell pellets.
(§2) The antimicrobial activities of the 50 organic extracts were studied against three fungal pathogens—Candida albicans, Aspergillus fumigatus, and Cryptococcus neoformans—and five bacterial strains-Methicillin-resistant Staphylococcus aureus (MIRSA), Escherichia coli, Pseudomonas aeruginosa, Klebsiella pneumoniae, and Vancomycin-resistant Enterococcus faecium (VRE) (FIG. 2). The test concentrations for all extracts were in the range of 8-200 μg/mL (Table 3).
The potent activities against the fungal pathogen C. neoformans and the gram-positive bacteria S. aureus, MRSA, and M. intracellulare were also shown in the crude extracts (FIG. 7).
(§3) The antimicrobial activities of identified fusaricidins were in an in vitro study against several clinically relevant microbes. […] For the in-vitro assays against bacteria, fusaricidins were tested against methicillin-resistant Staphylococcus aureus, vancomycin-resistant Enterococcus faecium, Escherichia coli, and Pseudomonas aeruginosa using four antibacterial drugs methicillin, vancomycin, cefotaxime, and meropenem as controls. […] Fusaricidins were also tested against fungal pathogens Cryptococcus neoformans, Candida albicans, and Aspergillus fumigatus and compared with two antifungal drugs, fluconazole and amphotericin B (Table 13). Moreover, the anti-parasitic activity was also tested against L. donovani and T. brucei (Table 14).

[1] = tested on: Methicillin-resistant Staphylococcus aureus (MRSA); assay: In vitro antimicrobial activity against MRSA; details: for MIC: read-out: MRSA MIC (minimum inhibitory concentration)
Experimental: as §1, §2, §3

Candida albicans = assay: In vitro antimicrobial activity against Candida albicans; details: for C. albicans IC50 (50% growth inhibitory concentration) / C. albicans MIC (minimum inhibitory concentration): Table 12; for C. albicans IC50 (50% growth inhibitory concentration): highest test conc. fusaricidins 20, controls 100 μg/mL; for C. albicans MIC (minimum inhibitory concentration): lowest concentration that allows no detectable growth; for IC50: Candida albicans, test conc. 200-8 μg/mL (extracts), 100-4 or 10-0.4 μg/mL (drugs), read-out: C. albicans IC50; for C. albicans IC50: Table 5, extracts tested at 8-200 μg/mL
Experimental: as §1, §2, §3

Aspergillus fumigatus = assay: In vitro antimicrobial activity against Aspergillus fumigatus; details: for A. fumigatus IC50 (50% growth inhibitory concentration) / A. fumigatus MIC (minimum inhibitory concentration): Table 12; for A. fumigatus IC50 (50% growth inhibitory concentration): highest test conc. fusaricidins 20, controls 100 μg/mL; for A. fumigatus MIC (minimum inhibitory concentration): lowest concentration that allows no detectable growth; for IC50: Aspergillus fumigatus, test conc. 200-8 μg/mL (extracts), 100-4 or 10-0.4 μg/mL (drugs), read-out: A. fumigatus IC50; for A. fumigatus IC50: Table 5, extracts tested at 8-200 μg/mL
Experimental: as §1, §2, §3

Pseudomonas aeruginosa = assay: In vitro antimicrobial activity against Pseudomonas aeruginosa; details: for MIC: read-out: P. aeruginosa MIC (minimum inhibitory concentration)
Experimental: as §1, §2, §3

[2] = tested on: Vancomycin-resistant Enterococcus faecium (VRE); assay: In vitro antimicrobial activity against VRE; details: for MIC: read-out: VRE MIC (minimum inhibitory concentration); for VRE IC50: Table 5, extracts tested at 8-200 μg/mL
Experimental: as §1, §2, §3

Escherichia coli = assay: In vitro antimicrobial activity against Escherichia coli; details: for MIC: read-out: E. coli MIC (minimum inhibitory concentration)
Experimental: as §1, §2, §3

Klebsiella pneumoniae = assay: In vitro antimicrobial activity against Klebsiella pneumoniae; details: Klebsiella pneumoniae; test conc. 200-8 μg/mL (extracts), 100-4 or 10-0.4 μg/mL (drugs); read-out: K pneumoniae IC50
Experimental: as §1, §2

[3] = Table 13, Methicillin-resistant Staphylococcus aureus ATCC 1708
[4] = Table 13, Pseudomonas aeruginosa ATCC 2108
[5] = Table 13, Vancomycin-resistant Enterococcus faecium ATCC 700221
[6] = Table 13, Escherichia coli ATCC 2452
[7] = ATCC 1708 / MRSA, Table 13, Methicillin-resistant Staphylococcus aureus ATCC 1708, read-out: MRSA IC50 (50% growth inhibitory concentration)
[8] = ATCC 1708 / MRSA, Table 13, Methicillin-resistant Staphylococcus aureus ATCC 1708
[9] = Staphylococcus aureus, MRSA, test conc. 200-8 μg/mL (extracts), 100-4 or 10-0.4 μg/mL (drugs), read-out: MRS IC50
[10] = ATCC2108, Table 13, Pseudomonas aeruginosa ATCC 2108, read-out: P. aeruginosa IC50 (50% growth inhibitory concentration)
[11] = ATCC2108, Table 13, Pseudomonas aeruginosa ATCC 2108
[12] = Pseudomonas aeruginosa, test conc. 200-8 μg/mL (extracts), 100-4 or 10-0.4 μg/mL (drugs), read-out: P. aeruginosa IC50
[13] = ATCC 700221 / VRE, Table 13, Vancomycin-resistant Enterococcus faecium ATCC 700221, read-out: VRE IC50 (50% growth inhibitory concentration)
[14] = ATCC 700221 / VRE, Table 13, Vancomycin-resistant Enterococcus faecium ATCC 700221
[15] = test conc. 200-8 μg/mL (extracts), 100-4 or 10-0.4 μg/mL (drugs), read-out: VRE IC50
[16] = ATCC2452, Table 13, Escherichia coli ATCC 2452, read-out: E. coli IC50 (50% growth inhibitory concentration)
[17] = ATCC2452, Table 13, Escherichia coli ATCC 2452
[18] = Escherichia coli, test conc. 200-8 μg/mL (extracts), 100-4 or 10-0.4 μg/mL (drugs), read-out: E. coli IC50

Row | Compound | C. neoformans IC50 (50% growth inhibitory concentration) (Cryptococcus neoformans) [µg/mL] | C. neoformans MIC (minimum inhibitory concentration) (Cryptococcus neoformans) [µg/mL] | MRSA IC50 (50% growth inhibitory concentration) [1, 3] [µg/mL] | MRSA MIC (minimum inhibitory concentration) [1, 3] [µg/mL] | C. albicans IC50 (50% growth inhibitory concentration) (Candida albicans) [µg/mL] | C. albicans MIC (minimum inhibitory concentration) (Candida albicans) [µg/mL] | A. fumigatus IC50 (50% growth inhibitory concentration) (Aspergillus fumigatus) | A. fumigatus MIC (minimum inhibitory concentration) (Aspergillus fumigatus) | P. aeruginosa IC50 (50% growth inhibitory concentration) (Pseudomonas aeruginosa; [4]) | P. aeruginosa MIC (minimum inhibitory concentration) (Pseudomonas aeruginosa; [4]) | VRE IC50 (50% growth inhibitory concentration) [2, 5] [µg/mL] | VRE MIC (minimum inhibitory concentration) [2, 5] [µg/mL] | E. coli IC50 (50% growth inhibitory concentration) (Escherichia coli; [6]) | E. coli MIC (minimum inhibitory concentration) (Escherichia coli; [6]) | IC50 (Cryptococcus neoformans) [µg/mL] | C. neoformans IC50 (Cryptococcus neoformans) [µg/mL] | IC50 [1, 7] [µg/mL] | MIC [1, 8] [µg/mL] | IC50 [1, 9] [µg/mL] | IC50 (Candida albicans) [µg/mL] | further results
1 | CC(C)[C@@H]1NC(=O)[C@@H](C(C)C)NC(=O)[C@@H](NC(=O)CC(O)CCCCCCCCCCCCN=C(N)N)[C@@H](C)OC(=O)[C@@H](C)NC(=O)[C@@H](CC(N)=O)NC(=O)[C@@H]([C@@H](C)O)NC1=O (stereo partly shown) [Fusaricidin A (SQ-1-43 A)] ({Pentadecanoyl(3ξ-OH,15-Gua)}-T[dV]V[d(aThr)][dN][dA]; ester 1-C) | 0.5 | 1.3 | 2.3 | 2.5 | 5.1 | 10.0 | >20/>20 μg/mL | >20/>20 μg/mL | >20/>20 μg/mL | >20/>20 μg/mL | 3.6 | 5.0 | >20/>20 μg/mL | >20/>20 μg/mL | – | – | – | – | – | – | –
2 | CC(C)[C@@H]1NC(=O)[C@@H](C(C)C)NC(=O)[C@@H](NC(=O)CC(O)CCCCCCCCCCCCN=C(N)N)C(C)OC(=O)[C@@H](C)NC(=O)[C@@H](CCC(N)=O)NC(=O)[C@@H]([C@H](C)O)NC1=O (stereo partly shown) [Fusaricidin B (SQ-1-43B)] ({Pentadecanoyl(3ξ-OH,15-Gua)}-[Thr(3ξ)][dV]V[dT][dQ][dA]; ester 1-C) | 1.1 | 2.5 | 4.2 | 5.0 | 9.1 | 10.0 | >20/>20 μg/mL | >20/>20 μg/mL | >20/>20 μg/mL | >20/>20 μg/mL | 8.7 | 20.0 | >20/>20 μg/mL | >20/>20 μg/mL | – | – | – | – | – | – | –
3 | C[C@@H](O)[C@H]1C(=O)N2C(C(=O)O)=C(S[C@@H]3CN[C@H](C(=O)N(C)C)C3)[C@H](C)[C@H]12 [Meropenem] | – | – | – | – | – | – | – | – | – | – | – | – | – | – | > 100 | >100 | 5.7 (≈ 14.9 µM) | 12.5 (≈ 32.6 µM) | 2.75 (≈ 7.17 µM) | > 100 | C. albicans IC50 (Candida albicans): >100 µg/mL; IC50 (Klebsiella pneumoniae): 18.1 µg/mL (≈ 47.3 µM); IC50 (Aspergillus fumigatus): > 100 µg/mL; A. fumigatus IC50 (Aspergillus fumigatus): >100 µg/mL; IC50 (Pseudomonas aeruginosa; [10]): 5.9 µg/mL (≈ 15.4 µM); MIC (Pseudomonas aeruginosa; [11]): 25 µg/mL (≈ 65.2 µM); IC50 (Pseudomonas aeruginosa; [12]): > 100 µg/mL; IC50 [2, 13]: > 100 µg/mL; MIC [2, 14]: > 100 µg/mL; VRE IC50 [2]: >100 µg/mL; IC50 [2, 15]: > 100 µg/mL; IC50 (Escherichia coli; [16]): 5.4 µg/mL (≈ 14.1 µM); MIC (Escherichia coli; [17]): 12.5 µg/mL (≈ 32.6 µM); IC50 (Escherichia coli; [18]): 11.5 µg/mL (≈ 30 µM)
4 | COc1cccc(OC)c1C(=O)N[C@@H]1C(=O)N2[C@@H]1SC(C)(C)[C@@H]2C(=O)O [Methicillin] | – | – | – | – | – | – | – | – | – | – | – | – | – | – | > 100 | >100 | 12.1 (≈ 31.8 µM) | 50 (≈ 131 µM) | 19 (≈ 49.9 µM) | > 100 | C. albicans IC50 (Candida albicans): >100 µg/mL; IC50 (Klebsiella pneumoniae): > 100 µg/mL; IC50 (Aspergillus fumigatus): > 100 µg/mL; A. fumigatus IC50 (Aspergillus fumigatus): >100 µg/mL; IC50 (Pseudomonas aeruginosa; [10]): 76 µg/mL (≈ 200 µM); MIC (Pseudomonas aeruginosa; [11]): > 100 µg/mL; IC50 (Pseudomonas aeruginosa; [12]): 95.4 µg/mL (≈ 251 µM); IC50 [2, 13]: > 100 µg/mL; MIC [2, 14]: > 100 µg/mL; VRE IC50 [2]: >100 µg/mL; IC50 [2, 15]: > 100 µg/mL; IC50 (Escherichia coli; [16]): > 100 µg/mL; MIC (Escherichia coli; [17]): > 100 µg/mL; IC50 (Escherichia coli; [18]): > 100 µg/mL
5 | Fusaricidin B | – | – | – | – | – | – | – | – | – | – | – | – | – | – | – | – | – | – | – | – | activity against MRSA (in words) [1]: strong activity; activity against VRE (in words) [2]: strong activity
